Measurements taken from patent EP2197879B1, “C7-SUBSTITUTED CAMPTOTHECIN ANALOGS” (priority 2007, dated 2009).
Read-outs that look alike come from different tables or passages of the source.

Columns and labels:
[1] = test system: A2780/WT (wild-type) cells; test: Sulforhodamine B (SRB) cytotoxicity assay in A2780/WT cells; type: cell-based
Experimental: (§1) Each of the testing conditions used in this study in both A2780/WT (wild-type) and A2780/DX5 cells were repeated in five to fifteen experiments that were performed on separate days. Each experiment consisted of one microtiter plate with at least eight individual assays of a given drug treatment condition on the plate. The sulforhodamine B (SRB) assay was used to assess cytotoxicity and absorbance at 570 nm (A570) in order to calculate the percentage of cell control (or percent cell survival) for the various treatment conditions in the plate wells.
(§2) Roswell Park Memorial Institute (RPMI 1640) medium, fetal bovine serum (FBS), and L-glutamine were purchased from Gibco BRL. Drugs were dissolved in sterile dimethylsulfoxide (DMSO), from American Type Culture Collection (ATCC) for stock solutions (2.5 to 5.0 mM). Subsequent dilutions were made using cell culture medium (prior to adding the drug to cells). SRB was purchased from Sigma and dissolved in 1.0 percent acetic acid. Trichloroacetic acid was purchased from VWR International.
(§3) Cells were manipulated in a Class IIA/B3 Biological Safety Cabinet (Forma Scientific) and maintained at 37°C in a humidified atmosphere containing 5% CO2 in a water-jacketed cell culture incubator (Forma Scientific). Cells were counted using a Coulter-Z1 counter (Beckman-Coulter). Following drug treatment, plates were washed using a Biomek 2000 station (Beckman) and, following exposure to SRB dye, plates were washed using an automated plate washer (Model EL404, Bio-Tek Instruments). Percentage of control was correlated to A570 values and determined using a Model EL800 plate reader (Bio-Tek Instruments).
(§4) Population doubling times for the two cell lines used in this study encompassed a total of five cell doublings corresponding to approximately 5 days for A2780/WT and A2780/DX5 cells. A2780/WT and A2780/DX5 cells were cultured in RPMI 1640 medium supplemented with 10% fetal bovine serum and 1 mM of L-glutamine. Both cell lines were maintained as monolayered cultures in T-25 or T-75 flasks and then seeded to microtiter plate wells for experiments described herein. Prior to SRB assays, cell viability was monitored by evaluation of microtiter plate wells. Dead cells detach and float while living cells remain attached to the bottom of the cell well.
(§5) The sulforhodamine B (SRB) cytotoxicity assay (see, Skehan P, et al., New colorimetric cytotoxicity assay for anticancer-drug screening. J. Natl. Cancer Inst. 82:1107-1112 (1990)) was used to determine the cytotoxic effects of BNP1350, SN-38, topotecan, 9-NH2-CPT, and 9-NO2-CPT on cell growth in vitro. Briefly, after the medium was aspirated from individual plate wells, trichloroacetic acid (100 µL of 10.0% solution) was added to each well, and the plates were incubated at 4°C for at least 1 hour. The plates were washed five-times with water using an automated microplate washer (Model EL 404, Bio-Tek Instruments), SRB solution (100 µL of 0.4 grams SRB dissolved in 100 mL 1.0 percent acetic acid) was added, and plates remained at room temperature for 15 minutes. The plates were then washed five-times using acetic acid (1.0%), air dried, and bound dye was solubilized in Tris base (150 µL, 10 mM). Plates were agitated (gently) for 5 minutes and the absorbance values of the SRB dye-protein adduct at a 570 nm wavelength (A570) were determined using an automated microtiter plate reader equipped with an A570 filter (Model EL800, BioTek Instruments). Table VII. Summary of Cytotoxicity Experiments in A2780/WT and DX5 Cells

A2780/DX5 cells = test: Sulforhodamine B (SRB) cytotoxicity assay in A2780/DX5 cells; type: cell-based; conditions: for IC50 Ratio: A2780/DX5 versus A2780/WT
Experimental: as §1, §2, §3, §4, §5

[2] = Homo sapiens, A2780, read-out: A2780/ WT (IC50)
[3] = Homo sapiens, A2780, read-out: A2780/ DX5 (IC50)
[4] = SRB assay, A2780/WT cells, read-out: A2780/ WT (IC50)
[5] = SRB assay, A2780/DX5 cells, read-out: A2780/ DX5 (IC50)

**Q.** How did the IC50 [1, 2] turn out when CC[C@@]1(O)C(=O)OCc2c1cc1n(c2=O)Cc2c-1nc1ccccc1c2CC[Si](C)(C)CI [Compound 4, 11-(4S)-[2-(iodomethyldimethylsilanyl)-ethyl]-4-ethyl-4-hydroxy-1,12-dihydro-4H-2-oxa-6,12a-diaza-dibenzo[b,h]fluorene-3,13-dione] was run?
**A.** 15.7 nM

**Q.** What about the “IC50 Ratio” value (A2780/DX5 cells) of the same compound?
**A.** 1.72

**Q.** And the IC50 (A2780/DX5 cells; [3])?
**A.** 27 nM

**Q.** What does the source list for CC[C@@]1(O)C(=O)OCc2c1cc1n(c2=O)Cc2c-1nc1ccccc1c2CC[Si](C)(C)CO [Compound 7, (4S)-4-ethyl-4-hydroxy-11-[2-(hydroxymethyldimethylsilanyl)-ethyl]-1,12-dihydro-4H-2-oxa-6,12a-diaza-dibenzo[b,h]fluorene-3,13-dione]?
**A.** IC50 [1, 2]: 9.6 nM; IC50 Ratio (A2780/DX5 cells): 4.2; IC50 (A2780/DX5 cells; [3]): 40.3 nM

**Q.** For CC[C@@]1(O)C(=O)OCc2c1cc1n(c2=O)Cc2c-1nc1ccccc1c2CC[Si](C)(C)CSC[C@H](NC(=O)OC(C)(C)C)C(=O)OC [Compound 8, (2R, 4S)-2-tert-butoxycarbonylamino-3-({[2-(4-ethyl-4-hydroxy-3,13-dioxo-3,4,12,13-tetrahydro-1H-2-oxa-6,12a-diaza-dibenzo[b,h]fluoren-11-yl)-ethyl]-dimethyl-silanyl}-methylsulfanyl)-propionic acid methyl ester], which IC50 [1, 2] is on record?
**A.** 39.8 nM

**Q.** What about the “IC50 Ratio” value (A2780/DX5 cells) of the same compound?
**A.** 2.77

**Q.** What about the IC50 (A2780/DX5 cells; [3]) of the same compound?
**A.** 110 nM

**Q.** For CCC1(O)C(=O)OCc2c1cc1n(c2=O)Cc2c-1nc1ccccc1c2CC[Si](C)(C)CSC(C)=O (stereo not drawn) [Compound 9, thioacetic acid S-({[2-(4-ethyl-4-hydroxy-3.13-dioxo-3,4,12,13-tetrahydro-1H-2-oxa-6,12a-diaza-dibenzo[b,h]fluoren-11-yl)-ethyl]-dimethylsilanyl} -methyl) ester], which IC50 [1, 4] is on record?
**A.** 64.7 nM

**Q.** What about the “IC50 Ratio” value (A2780/DX5 cells) of the same compound?
**A.** 1.94

**Q.** And the IC50 (A2780/DX5 cells; [5])?
**A.** 125 nM

**Q.** For CC[C@@]1(O)C(=O)OCc2c1cc1n(c2=O)Cc2c-1nc1ccccc1c2CC[Si](C)(C)CCCS(=O)(=O)c1ccccc1 [Compound 13, (4S)-11-{2-[(3-benzenesulfonylaronyl)-dimethylsilanyl]-ethyl}-4-ethyl-4-hydroxy-1,12-dihydro-4H-2-oxa-6,12a-diaza-dibenzo[b,h]fluorene-3,13-dione], which IC50 [1, 4] is on record?
**A.** 8.5 nM

**Q.** And the “IC50 Ratio” value (A2780/DX5 cells)?
**A.** 6.3

**Q.** And the IC50 (A2780/DX5 cells; [5])?
**A.** 53.5 nM

**Q.** How did the IC50 [1, 4] turn out when CC[C@@]1(O)C(=O)OCc2c1cc1n(c2=O)Cc2c-1nc1ccccc1c2CC[Si](C)(C)CCCn1ccnc1 [Compound 14, (4S)-4-ethyl-4-hydroxy-11-{2-[(3-imidazol-1-yl-propyl)-dimethyl-silanyl]-ethyl}-1,12-dihydro-4H-2-oxa-6,2a-diaza-dibenzo[b,h]fluorene-3,13-dione] was run?
**A.** 11.2 nM

**Q.** And the “IC50 Ratio” value (A2780/DX5 cells)?
**A.** 14.8

**Q.** And the IC50 (A2780/DX5 cells; [5])?
**A.** 166 nM

**Q.** For CC[C@@]1(O)C(=O)OCc2c1cc1n(c2=O)Cc2c-1nc1ccccc1c2CC[Si](C)(C)CCCn1cncn1 [Compound 15, (4S)-11-{2-[dimethyl-(3-[1,2,4]triazol-1-yl-pronyl)-silanyl]-ethyl}-4-ethyl-4-hydroxy-1,12-dihydro-4H-2-oxa-6,12a-diaza-dibenzo[b,h]fluorene-3,13-dione], which IC50 [1, 4] is on record?
**A.** 9 nM

**Q.** And the “IC50 Ratio” value (A2780/DX5 cells)?
**A.** 6.9

**Q.** What about the IC50 (A2780/DX5 cells; [5]) of the same compound?
**A.** 62.4 nM

**Q.** CC[C@@]1(O)C(=O)OCc2c1cc1n(c2=O)Cc2c-1nc1ccccc1c2CC[Si](C)(C)CCCN(C)C [Compound 16, (4S)-11-{2-[(3-dimethylaminopropyl)-dimethysilanyl]-ethyl}-4-ethyl-4-hydroxyl-1,12-dihydro-4H-2-oxa-6,12a-diaza-dibenzo[b,h]fluorene-3,13-dione] was tested. Which IC50 [1, 4] did it give?
**A.** 23.6 nM

**Q.** And the “IC50 Ratio” value (A2780/DX5 cells)?
**A.** 21.7

**Q.** What about the IC50 (A2780/DX5 cells; [5]) of the same compound?
**A.** 512 nM

**Q.** Which results are given for CC[C@@]1(O)C(=O)OCc2c1cc1n(c2=O)Cc2c-1nc1ccccc1c2CC[Si](C)(C)CCCn1ccccc1=O [Compound 17, (4S)-11-(2-{dimethyl-[3-(2-oxo-2H-pyridin-1-yl)-propyl]-silanyl}-ethyl)-4-ethyl-4-hydroxy-1,12-dihydro-4H-2-oxa-6,12a-diaza-dibenzo[b,h]fluorene-3,13-dione]?
**A.** IC50 [1, 2]: 16 nM; IC50 Ratio (A2780/DX5 cells): 11.6; IC50 (A2780/DX5 cells; [3]): 186 nM

**Q.** Which IC50 [1, 2] does the source give for CC[C@@]1(O)C(=O)OCc2c1cc1n(c2=O)Cc2c-1nc1ccccc1c2CC[Si](C)(C)CCCP(=O)(OC)OC [Compound 18, (4S)-(3-{[2-(4-ethyl-4-hydroxy-3,13-dioxo-3,4,12,13-tetrahydro-1H-2-oxa-6,12a-diaza-dibenzo[b,h]fluoren-11-yl)-ethyl]-dimethylsilanyl}-propyl)-phosphonic acid dimethyl ester] here?
**A.** 58.6 nM

**Q.** What about the “IC50 Ratio” value (A2780/DX5 cells) of the same compound?
**A.** 11.7

**Q.** What about the IC50 (A2780/DX5 cells; [3]) of the same compound?
**A.** 687 nM

**Q.** CC[C@@]1(O)C(=O)OCc2c1cc1n(c2=O)Cc2c-1nc1ccccc1c2CC[Si](C)(C)CCCNC(=O)C(F)(F)F [Compound 23, (4S)-N-(3-{[2-(4-ethyl-4-hydroxy-3,13-dioxo-3,4,12,13-tetrahydro-1H-2-oxa-6,12a-diaza-dibenzo[b,h]fluoren-11-yl)-ethyl]-dimethyl-silanyl}-propyl)-2,2,2-trifiuoro-acetamide] was tested. Which IC50 [1, 4] did it give?
**A.** 16.9 nM

**Q.** What about the “IC50 Ratio” value (A2780/DX5 cells) of the same compound?
**A.** 3.3

**Q.** And the IC50 (A2780/DX5 cells; [5])?
**A.** 55.8 nM

**Q.** For CC[C@@]1(O)C(=O)OCc2c1cc1n(c2=O)Cc2c-1nc1ccccc1c2CC[Si](C)(C)CCCNC(=O)Nc1ccccc1 [Compound 25, (4S)-1-(3-{[2-(4-ethyl-4-hydroxy-3,13-dioxo-3,14,12,13-tetrahydro-1H-2-oxa-6,12a-diaza-dibenzo[b,h]fluoren-11-yl)-ethyl]-dimethylsilanyl}-propyl)-3-phenylurea], which IC50 [1, 4] is on record?
**A.** 23.4 nM

**Q.** And the “IC50 Ratio” value (A2780/DX5 cells)?
**A.** 6.5

**Q.** What about the IC50 (A2780/DX5 cells; [5]) of the same compound?
**A.** 152 nM

**Q.** What does the source list for CCN(CC)C(=O)NCCC[Si](C)(C)CCc1c2c(nc3ccccc13)-c1cc3c(c(=O)n1C2)COC(=O)[C@]3(O)CC [Compound 27, (4S)-1,1-diethyl-3-(3-{[2-(4-ethyl-4-hydroxy-3,13-dioxo-3,4,12,13-tetrahydro-1H-2-oxa-6,12a-diaza-dibenzo[b,h]fluoren-11-yl)-ethyl]-dimethyl-silanyl}-propyl)-urea]?
**A.** IC50 [1, 2]: 65.2 nM; IC50 Ratio (A2780/DX5 cells): 7.21; IC50 (A2780/DX5 cells; [3]): 470 nM

**Q.** What does the source list for CC[C@@]1(O)C(=O)OCc2c1cc1n(c2=O)Cc2c-1nc1ccccc1c2CC[Si](C)(C)CCCNC(=O)N(C)C [Compound 29, (4S)-3-(3-{[2-(4-ethyl-4-hydroxy-3,13-dioxo-3,4,12,13-tetrahydro-1H-2-oxa-6,12a-diaza-dibenzo[b,h]fluoren-11-yl)-ethyl]-dimethylsilanyl}-propyl)-1,1-dimethylurea]?
**A.** IC50 [1, 2]: 27.5 nM; IC50 Ratio (A2780/DX5 cells): 11.4; IC50 (A2780/DX5 cells; [3]): 312 nM

**Q.** Which results are given for CC[C@@]1(O)C(=O)OCc2c1cc1n(c2=O)Cc2c-1nc1ccccc1c2CC[Si](C)(C)Cn1ccccc1=O [Compound 31, (4S)-11-{2-[dimethyl-(2-oxo-2H-pyridin-1-ylmethyl)-silanyl]-ethyl}-4-ethyl-4-hydroxy-1,12-dihydro-4H-2-oxa-6,12a-diaza-dibenzo[b,h]fluorene-3,13-dione]?
**A.** IC50 [1, 2]: 12.1 nM; IC50 Ratio (A2780/DX5 cells): 8.1; IC50 (A2780/DX5 cells; [3]): 98.5 nM

**Q.** Which results are given for CC[C@@]1(O)C(=O)OCc2c1cc1n(c2=O)Cc2c-1nc1ccccc1c2CC[Si](C)(C)CN1CCCC1 [Compound 32, (4S)-11-[2-(dimethyl-pyrrolidin-1-ylmethyl-silanyl)-ethyl]-4-ethyl-4-hydroxy-1,12-dihydro-4H-2-oxa-6,12a-diaza-dibenzo[b,h]fluorene-3,13-dione]?
**A.** IC50 ([1]; Homo sapiens, SRB assay, A2780/WT cells, read-out: A2780/ WT (IC50)): 46.4 nM; IC50 Ratio (A2780/DX5 cells): 6.9; IC50 (A2780/DX5 cells; [3]): 319 nM

**Q.** How did the IC50 [1, 2] turn out when CC[C@@]1(O)C(=O)OCc2c1cc1n(c2=O)Cc2c-1nc1ccccc1c2CC[Si](C)(C)CSc1nccn1C [Compound 33, (4S)-11-{2-[dimethyl-(1-methyl-1H-imidazol-2-ylsulfanylmethyl)-silanyl]-ethyl}-4-ethyl-4-hydroxy-1,12-dihydro-4H-2-oxa-6,12a-diaza-dibenzo[b,h]fluorene-3,13-dione] was run?
**A.** 9.7 nM

**Q.** And the “IC50 Ratio” value (A2780/DX5 cells)?
**A.** 6.0

**Q.** And the IC50 (A2780/DX5 cells; [3])?
**A.** 57.8 nM
